Structures are written as SMILES. Values joined by “and” are separate entries in the source; they are usually repeats but may differ in a detail not shown here. Equal values may be shown once. Toxic doses and inconclusive results are not listed.

The assay concerns BDF1 mice, P388 leukemia ip, median survival T/C. Put plainly: NCI In Vivo Anticancer Drug Screen. Data for tumor model P388 Leukemia (intraperitoneal) in B6D2F1 (BDF1) mice. To be noted: endpoint: median survival time, higher = longer survival. The essentials: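 Steps: implant the tumour, treat one group with compound and another with vehicle, record survival, then divide treated by control.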

The mark [1] stands for this setting: dose: 12.5 mg/kg/injection, schedule: Q04DX003 (ip), vehicle: saline.
[2] abbreviates: dose: 100.0 mg/kg/injection, schedule: Q01DX009 (ip), vehicle: saline with Tween-80.
The mark [3] stands for this setting: dose: 100.0 mg/kg/injection, schedule: Q04DX003 (ip), vehicle: saline with Tween-80.
Where [4] appears, read: dose: 200.0 mg/kg/injection, schedule: Q01DX009 (ip), vehicle: saline with Tween-80.
The mark [5] stands for this setting: dose: 200.0 mg/kg/injection, schedule: Q04DX003 (ip), vehicle: saline with Tween-80.
The mark [6] stands for this setting: dose: 400.0 mg/kg/injection, schedule: Q01DX009 (ip), vehicle: saline with Tween-80.
[7] abbreviates: dose: 400.0 mg/kg/injection, schedule: Q04DX003 (ip), vehicle: saline with Tween-80.
[8] abbreviates: dose: 25.0 mg/kg/injection, schedule: Q01DX009 (ip), vehicle: Klucel (hydroxypropylcellulose) (HPC).
[9] abbreviates: dose: 50.0 mg/kg/injection, schedule: Q01DX009 (ip), vehicle: Klucel (hydroxypropylcellulose) (HPC).
The mark [10] stands for this setting: dose: 25.0 mg/kg/injection, schedule: Q04DX003 (ip), vehicle: Klucel (hydroxypropylcellulose) (HPC).
[11] abbreviates: dose: 50.0 mg/kg/injection, schedule: Q04DX003 (ip), vehicle: Klucel (hydroxypropylcellulose) (HPC).
Where [12] appears, read: dose: 100.0 mg/kg/injection, schedule: Q04DX003 (ip), vehicle: Klucel (hydroxypropylcellulose) (HPC).
[13] abbreviates: dose: 50.0 mg/kg/injection, schedule: Q01DX009 (ip), vehicle: saline with Tween-80.
Where [14] appears, read: dose: 100.0 mg/kg/injection, schedule: Q01DX009 (ip), vehicle: Klucel (hydroxypropylcellulose) (HPC).
Where [15] appears, read: dose: 200.0 mg/kg/injection, schedule: Q01DX009 (ip), vehicle: Klucel (hydroxypropylcellulose) (HPC).
Where [16] appears, read: dose: 200.0 mg/kg/injection, schedule: Q04DX003 (ip), vehicle: Klucel (hydroxypropylcellulose) (HPC).

In the case of `CCOC(=O)C(N)Cc1ccc(N(CCCl)CCCl)cc1` (centres undefined), the T/C reads like this: (dose: 4.0 mg/kg/injection, schedule: Q04DX003 (ip), vehicle: saline with Tween-80) 240 % of control and 245 % of control; (dose: 6.0 mg/kg/injection, schedule: Q04DX003 (ip), vehicle: saline with Tween-80) 272 % of control; (dose: 9.0 mg/kg/injection, schedule: Q04DX003 (ip), vehicle: saline with Tween-80) 272 % of control and 95 % of control.

For `CCOC(=O)c1ccc(NC(=O)Nc2nc(C)cs2)cc1`, the T/C is 103 % of control (dose: 25.0 mg/kg/injection, schedule: Q01DX009 (ip), vehicle: other) and 99 % of control (dose: 100.0 mg/kg/injection, schedule: Q01DX009 (ip), vehicle: other).

On to `FC(F)(F)c1ccc2c(c1)N(CCCN1CCN(CCN3CCOCC3)CC1)c1ccccc1S2`, for which the T/C is, setting by setting: under setting [1], 99 % of control and 100 % of control; (dose: 25.0 mg/kg/injection, schedule: Q04DX003 (ip), vehicle: saline) 86 % of control and 99 % of control; (dose: 50.0 mg/kg/injection, schedule: Q04DX003 (ip), vehicle: saline) 104 % of control and 112 % of control.

With `Cc1ccc(/C=C/C(=O)c2ccc(Cl)cc2)cc1`, the T/C under setting [2] is 90 % of control; the T/C under setting [3] is 95 % of control; the T/C under setting [4] was 90 % of control; the T/C under setting [5] was 109 % of control; the T/C under setting [6] was 100 % of control; the T/C under setting [7] is 109 % of control.

Turning to `CSc1cccc(NC(=O)OCCOc2ccc(-c3ccccc3)cc2)c1`, the T/C is 109 % of control (dose: 12.5 mg/kg/injection, schedule: Q01DX009 (ip), vehicle: Klucel (hydroxypropylcellulose) (HPC)); 105 % of control under setting [8]; 111 % of control under setting [9].

As to `c1ccc(COc2ccccn2)cc1`, the T/C by setting is: under setting [10], 90 % of control; under setting [11], 95 % of control; under setting [12], 90 % of control.

Take `CC(=O)OCC(=O)[C@@]1(O)CC[C@H]2[C@@H]3C[C@H](C)C4=CC(=O)CC[C@]4(C)[C@H]3[C@@H](O)C[C@@]21C`: the T/C under setting [6] was 90 % of control.

Take `Cc1cc2nc(CBr)c(CBr)nc2cc1C`: the T/C is 120 % of control (dose: 1.56 mg/kg/injection, schedule: Q01DX009 (ip), vehicle: saline); 120 % of control (dose: 3.12 mg/kg/injection, schedule: Q01DX009 (ip), vehicle: saline); 95 % of control (dose: 3.12 mg/kg/injection, schedule: Q04DX003 (ip), vehicle: saline); 95 % of control (dose: 6.25 mg/kg/injection, schedule: Q01DX009 (ip), vehicle: saline); 100 % of control (dose: 6.25 mg/kg/injection, schedule: Q04DX003 (ip), vehicle: saline); 94 % of control (dose: 8.75 mg/kg/injection, schedule: Q01DX001 (ip), vehicle: Klucel (hydroxypropylcellulose) (HPC)). The T/C by setting is: under setting [1], 90 % of control; (dose: 17.5 mg/kg/injection, schedule: Q01DX001 (ip), vehicle: Klucel (hydroxypropylcellulose) (HPC)) 88 % of control; (dose: 18.0 mg/kg/injection, schedule: Q04DX003 (ip), vehicle: saline) 90 % of control; (dose: 35.0 mg/kg/injection, schedule: Q01DX001 (ip), vehicle: Klucel (hydroxypropylcellulose) (HPC)) 88 % of control.

Take `COCCCNC1=C(C#N)C(=O)NC(c2cccs2)S1` (centres undefined): the T/C by setting is: under setting [13], 100 % of control; under setting [2], 117 % of control; under setting [4], 121 % of control.

With `O/N=C\CCC/C=N/O`, the T/C under setting [11] was 100 % of control; the T/C under setting [14] is 91 % of control; the T/C under setting [12] is 100 % of control; the T/C under setting [15] is 95 % of control; the T/C under setting [16] is 100 % of control; the T/C (dose: 400.0 mg/kg/injection, schedule: Q01DX009 (ip), vehicle: Klucel (hydroxypropylcellulose) (HPC)) was 95 % of control.

With `Nc1ncnc2c1cnn2Cc1ccc(Cl)cc1`, the T/C (dose: 12.5 mg/kg/injection, schedule: Q04DX003 (ip), vehicle: Klucel (hydroxypropylcellulose) (HPC)) was 118 % of control; the T/C (dose: 16.5 mg/kg/injection, schedule: Q04DX003 (ip), vehicle: Klucel (hydroxypropylcellulose) (HPC)) was 91 % of control and 100 % of control; the T/C under setting [8] is 90 % of control; the T/C under setting [10] is 91 % of control and 100 % of control; the T/C (dose: 37.5 mg/kg/injection, schedule: Q04DX003 (ip), vehicle: Klucel (hydroxypropylcellulose) (HPC)) is 95 % of control; the T/C under setting [9] is 95 % of control. In addition, the T/C under setting [11] was 104 % of control.

On to `Cc1ncc2n1C=CN(C(=O)c1ccc([N+](=O)[O-])cc1)C2O` (centres undefined), for which the T/C (dose: 50.0 mg/kg/injection, schedule: Q01DX009 (ip), vehicle: water) is 103 % of control; the T/C (dose: 100.0 mg/kg/injection, schedule: Q01DX009 (ip), vehicle: water) was 94 % of control; the T/C (dose: 100.0 mg/kg/injection, schedule: Q04DX003 (ip), vehicle: water) was 102 % of control; the T/C (dose: 200.0 mg/kg/injection, schedule: Q01DX009 (ip), vehicle: water) is 93 % of control; the T/C (dose: 200.0 mg/kg/injection, schedule: Q04DX003 (ip), vehicle: water) was 93 % of control; the T/C (dose: 400.0 mg/kg/injection, schedule: Q01DX009 (ip), vehicle: water) is 94 % of control. Under “dose: 400.0 mg/kg/injection, schedule: Q04DX003 (ip), vehicle: water”, the T/C was 98 % of control.

For `O=C1CCC(=O)N1CCC(=O)N(C(=O)NC1CCCCC1)C1CCCCC1`, the T/C (dose: 12.5 mg/kg/injection, schedule: Q01DX009 (ip), vehicle: saline with Tween-80) was 100 % of control; the T/C (dose: 25.0 mg/kg/injection, schedule: Q01DX009 (ip), vehicle: saline with Tween-80) is 101 % of control; the T/C under setting [13] is 104 % of control and 111 % of control; the T/C under setting [2] was 101 % of control; the T/C under setting [3] was 118 % of control; the T/C under setting [4] was 100 % of control and 123 % of control. The T/C runs as follows: under setting [5], 118 % of control; under setting [6], 111 % of control; under setting [7], 113 % of control.

For the compound `N#Cc1cnccn1`, the T/C (dose: 100.0 mg/kg/injection, schedule: Q01DX009 (ip), vehicle: saline) was 100 % of control; the T/C (dose: 200.0 mg/kg/injection, schedule: Q01DX009 (ip), vehicle: saline) is 100 % of control; the T/C (dose: 400.0 mg/kg/injection, schedule: Q01DX009 (ip), vehicle: saline) was 87 % of control.

With `CC(=O)OCCC/C(=C\c1ccc2ccccc2c1)[N+](=O)[O-]`, the T/C was 118 % of control under setting [14] and 122 % of control under setting [15].

On to `CCCc1nn2c(-c3ccccc3)nnc2o1`, for which the T/C is, setting by setting: under setting [3], 110 % of control; under setting [5], 115 % of control; under setting [7], 110 % of control.

For the compound `COC1OC(COC(=O)c2ccccc2)C(OC(=O)c2ccccc2)C(OC(=O)c2ccccc2)C1OC(=O)c1ccccc1` (centres undefined), the T/C is, setting by setting: under setting [3], 91 % of control; under setting [5], 91 % of control; under setting [7], 91 % of control.

Turning to `OC12CCCC3CCCC(CCC1)C32` (centres undefined), the T/C was 100 % of control under setting [12]; 100 % of control under setting [16]; 100 % of control (dose: 400.0 mg/kg/injection, schedule: Q04DX003 (ip), vehicle: Klucel (hydroxypropylcellulose) (HPC)).

As to `CC1CN1S(=O)(=O)N1CC1C` (centres undefined), the T/C is, setting by setting: (dose: 3.75 mg/kg/injection, schedule: Q01DX009 (ip), vehicle: saline with Tween-80) 100 % of control; (dose: 7.5 mg/kg/injection, schedule: Q01DX009 (ip), vehicle: saline with Tween-80) 112 % of control; (dose: 15.0 mg/kg/injection, schedule: Q01DX009 (ip), vehicle: saline with Tween-80) 158 % of control; (dose: 16.5 mg/kg/injection, schedule: Q04DX003 (ip), vehicle: saline with Tween-80) 113 % of control; (dose: 25.0 mg/kg/injection, schedule: Q04DX003 (ip), vehicle: saline with Tween-80) 154 % of control and 213 % of control; (dose: 30.0 mg/kg/injection, schedule: Q01DX009 (ip), vehicle: saline with Tween-80) 258 % of control. For the same compound, the T/C (dose: 37.5 mg/kg/injection, schedule: Q04DX003 (ip), vehicle: saline with Tween-80) was 204 % of control.

Values taken from PubChem BioAssay AID328 (DTP/NCI, 2004).
